Literature values, collected in US4693997A, “Novel pharmaceutical composition” (priority 1982, dated 1987).
Structures can show the parent of a compound that is named as a salt. Where two headings read alike, the source gives them in different places.

Tested on: mucosa in the oesophagus
Details: oral tablets
[1] = compared with emepronium bromide tablets

Structure (SMILES) | oesophageal irritation and ulceration [1] | oesophageal irritation and ulceration (Bennett, Lancet 1977, 1, 810)
CC1c2cccc(O)c2C(=O)C2=C(O)C3(O)C(=O)C(C(N)=O)=C(O)C(N(C)C)C3C(O)C21 (stereo not drawn) [doxycycline hydrochloride] | same type of irritation and ulceration | –
CC[N+](C)(C)C(C)CC(c1ccccc1)c1ccccc1 (stereo not drawn) [emepronium bromide] | – | severe irritation and ulceration in the oesophagus
CC(C)NCC(O)COc1cccc2ccccc12 (stereo not drawn) [propranolol hydrochloride] | same type of irritation and ulceration | –
